Series [1] is described as follows: Z-E isomerization half-life by UV/Vis spectrophotometry after 365 nm irradiation. Type of series: physicochemical. The settings on record: for τ1/2 (DMSO), Z-E isomerization half-life: RT, after 365 nm 5 min; for τ1/2 (Aqueous Kolliphor ELP), Z-E isomerization half-life: aqueous 4% Kolliphor ELP solution. As to the method: As one of the main physicochemical properties of photopharmacological agents, the Z-E half-life was investigated, which determines the stability of the Z-isomer. The Z-E half-lifes were measured using UV/Vis spectrophotometry, converting the compound to the Z-isomer by irradiating with UV light and observing the change in absorption intensity due to reverse Z-E relaxation.
Z-E isomerization half-life was determined using UV/Vis spectroscopy. Solutions were prepared and kept in the dark at RT before the experiment. First, the spectrum in the dark was registered ( PSSdark) , which corresponds to the photostationary state (PSS) with E-isomer predominance. Then, the cuvette with the solution was irradiated with UV light (λ = 365 nm) for 5 min to give the PSS with Z-isomer predominance. The corresponding spectrum was registered ( PSS365nm) . During the subsequent isomerization, the kinetics of changes in the absorption value were recorded at the wavelength of the absorption maximum corresponding to the E-isomer ( λmax(E)) . Then, lnAt/A0 values were calculated using the Equation (1):(1) lnAt/A0=lnAbsPSS(dark)−Abstime/AbsPSS(dark)−AbsPSS(365nm), where AbsPSS(dark) , AbsPSS(365nm), and Abstime are absorbance values at λmax(E) in the dark at the beginning of the experiment, after UV light (λ = 365 nm) irradiation, and at different time points from 0 to 60 min, respectively. Then, a graph was plotted depending on lnAt/A0 values from time, the trend line was calculated, and a first-order rate constant (k) for the thermal back Z-E isomerization reaction was obtained as the slope of the trend line.
For a first-order reaction, half-life t1/2 can be calculated using the Equation (2):(2) t1/2=ln2/k

Series [2] can be described thus: In vitro cytotoxicity, MTT test, 24 h incubation. Type of series: cell-based, human. The settings on record: human, dermal fibroblast cells (DF2), DF2 fibroblasts. How it is done:
(§1) The culture of dermal fibroblast cells (DF2) was obtained from the collection of the Institute of Cytology of the Russian Academy of Sciences (Saint Petersburg, Russia). The cells were cultured in plastic vials with a cell growth surface of 25 cm^2 (Costar, Richmond, VA, USA) on DMEM/F12 medium with the addition of L-glutamine and 10% fetal bovine serum (FBS) (PanEco, Moscow, Russia). The cells were cultured at 37 °C in a humid atmosphere with a content of 5% CO2 (Binder CO2 incubator, Germany). Cell lines from 3 to 7 passages were used in the work. To conduct experiments to evaluate the cytotoxicity of compounds, cells were sieved into 96-well culture plates at a concentration of 10^5 cells per ml, incubated at 37 °C (humidified atmosphere, 5% carbon dioxide) for 24–28 h. Further, 50 µL of the studied substances was added. The cells were incubated with the compounds for 24 h at 37 °C. Next, the cytotoxic effect of the substances was evaluated by a colorimetric method using an MTT test and visually, using an inverted microscope. The criterion for evaluating the specific activity of the compound was the value of IC50, the concentration at which 50% death of culture cells was noted.

Series [3] in a line: Solubility in water / aqueous solutions. Type of series: physicochemical.
Series [4] relates to human dermal fibroblasts (DF2). Kind of series: In vitro cytotoxicity, MTT test, 24 h incubation. Type of series: cell-based. How it is done:
as §1
(In general: Tetrazolium dyes change colour on reduction, which living cells bring about.)

Series [5] has as its system rabbit eye cornea. Description: Surface anesthesia on the rabbit cornea, Regnier method (Regnier index). Type of series: in vivo. To be noted: 1% solution, 0.2 mL instilled, mean ± SD. As to the method:
Thus, the main biological property investigated in this work was the local anesthetic activity of the new derivatives in the dark (with a predominance of the E-form) and under irradiation (with a predominance of the Z-form). The evaluation of local anesthetic activity was conducted on the rabbit cornea using the Regnier method. […] RI values in darkness (451 ± 40) and under UV light irradiation (469 ± 37) for a 2% solution of lidocaine, used as a reference drug, were obtained previously and are independent of light exposure. A 4% aqueous solution of Kolliphor® ELP, used for solubilizing ethercaine and its derivatives and lacking intrinsic local anesthetic activity, was employed as a negative control. In vitro cytotoxicity studies were conducted to initially assess the safety of the compounds.
Non-anesthetized, mature male rabbits of a Soviet chinchilla breed weighing 2–3 kg, obtained from the KrolInfo farm (Orekhovo-Zuyevo, Russia), were used in this study. Animals were kept under standard conditions (humidity 50–60%, temperature 19–22 °C). A 12-h lighting cycle was maintained. Each animal was kept in a separate cage. Animals had ad libitum access to standard extruded feed “CHARA” (CJSC “Assortiment-Agro”, Turakovo Village, Moscow region, Russia) and clean drinking water. Water treatment was performed using a “7 TECHNOCOM” block modular system (LLC “7 TECH”, Moscow, Russia). For in vivo, surface anesthesia measurements, an in-house-made anesthesiometer with a fixed length of a nylon filament (l = 1.0 cm, d = 0.125 mm) was used. Statistical analysis was performed, and figures were plotted using the Python programming language’s standard functions and a Matplotlib package (Version 3.8) for Python. All biological data conformed to a normal distribution (Shapiro–Wilk’s W test, p > 0.05). All data are expressed as the mean ± standard deviation.
For determination of the rabbit eye cornea’s sensitivity using the surface anesthesia method, 12 rabbits with a basic sensitivity threshold (sensitivity threshold of the eye cornea to tactile impact of the anesthesiometer) of 1–2 touches were selected. They were used in experiments repeatedly with an interval of at least 5 days between the experiments. Each eye was considered as a separate experimental point. Three animals were used in each of the experimental groups (n = 6). Two animals (n = 4) were used in each of the negative control groups and in each of experimental groups with UV irradiation due to the expected lack of the effect and to minimize the number of animals in the experiment. Animals were randomly divided into groups. Before an experiment, the animals were immobilized, leaving the head free. Before each experiment, the animals’ eyelashes were cut out, and the basic threshold of sensitivity of the eye cornea to tactile contact was determined using an anesthesiometer.
The irradiation modes were described earlier. Experiments with animals were carried out in a darkened room with a 50W LED light source (λ = 625 nm), which lies outside the absorption bands of the UV/Vis spectrum of the test compound. Before the experiments, solutions of test compounds were irradiated for 5 min with UV light (λ = 365 nm, LED flashlight, 0.5 W).
The adaptation of a model of surface anesthesia on the rabbit’s cornea using the Regnier method for the study of light-controlled local anesthetics was described earlier. The test solution (0.2 mL) of the required concentration (2% for the lidocaine or 1% for the ethercaine and its derivatives) was instilled into each conjunctival sac. After that, the sensitivity threshold of the eye cornea to tactile impact was determined. The first determination was performed at the 8th minute of the experiment and then at the 10th, 12th, 15th, 20th, 25th, 30th, 35th, 40th, 45th, 50th, 55th, and 60th min (13 values overall). […]

The test system of series [6] is rabbit eye cornea. Set-up: method as in PMID 35628162. The settings on record: 2% solution of lidocaine, obtained previously, cited from earlier work; for Local Anesthetic Activity (Regnier Index, Min—13, Max—1300) Under Irradiation (λ = 365 nm): UV light irradiation.

Structures are written as SMILES. Where a name gives a salt, the structure may show the parent alone. Read-outs that look alike come from different tables or passages of the source.

For orientation: IC50 means the point on the concentration scale where inhibition reaches its midpoint. For orientation: solubility means how much of the substance goes into solution per volume.

As to `O=C(CN1CCOCC1)Nc1ccc(/N=N/c2ccccc2)cc1` [Compound 2], in series [1], the “τ1/2 (DMSO), Z-E isomerization half-life” value came out at 30.5 h and the “τ1/2 (Aqueous Kolliphor ELP), Z-E isomerization half-life” value (from here on “τ1/2 (Aqueous Kolliphor ELP)”) was 0.517 h. This compound also yielded an IC50 at 24 h in series [2] greater than 200 µM. Besides, in series [3] (seen in the cytotoxicity test), the “Solubility in aqueous solutions (in words)” value is “poor solubility in aqueous solutions at concentrations above 200 µM”.
For `Cl.Fc1cccc(F)c1N=Nc1c(F)cc(OCCN2CCOCC2)cc1F` [Compound 20h, 2,2′,6,6′-tetrafluoro-4-(2-(N-morpholino)-ethoxy)-azobenzene hydrochloride], in series [1], the “τ1/2 (DMSO), Z-E isomerization half-life” value amounted to 1190 h and the “τ1/2 (Aqueous Kolliphor ELP)” value was determined as 281 h. In addition, half-maximal inhibition in series [4] (IC50) required 440 µM. Moreover, in the series with rabbit eye cornea [5] (in the dark (E-form predominance)), the “Local Anesthetic Activity (Regnier Index, Min—13, Max—1300) In the Dark” value is recorded as 353 ± 10 (n = 6). The “Local Anesthetic Activity (Regnier Index, Min—13, Max—1300) Under Irradiation (λ = 365 nm)” value in the series with rabbit eye cornea [5] (solution irradiated with UV 365 nm (Z-form predominance)) is 35 ± 7 (n = 4).
In the case of `c1csc(/N=N/c2ccc(OCCN3CCOCC3)cc2)n1` [Compound 25a, 2-(4-(2-(N-morpholino)-ethoxy)-phenylazo)-thiazole hydrochloride], in series [1], the “τ1/2 (DMSO), Z-E isomerization half-life” value was determined as 0.2 h and the “τ1/2 (Aqueous Kolliphor ELP)” value turned out to be 0.217 h. In series [2], this compound registered an IC50 at 24 h of 200 µM. The compound further came in with a solubility in series [3] (water) greater than 100 mg/mL.
In turn, `CCN(CC)CC(=O)Nc1c(C)cccc1C` [Lidocaine 2%, Lidocaine] displayed an IC50 at 24 h in series [2] greater than 5000 µM. In the series on rabbit eye cornea [6] (listed as lidocaine), the “Local Anesthetic Activity (Regnier Index, Min—13, Max—1300) Under Irradiation (λ = 365 nm)” value is 469 ± 37 and the “Local Anesthetic Activity (Regnier Index, Min—13, Max—1300) In the Dark” value is 451 ± 40. Also, in the series on rabbit eye cornea [6], the “Local Anesthetic Activity (Regnier Index, Min—13, Max—1300) Under Irradiation (λ = 365 nm)” value was 469 ± 37 (n = 8) and the “Local Anesthetic Activity (Regnier Index, Min—13, Max—1300) In the Dark” value is 451 ± 40 (n = 8).

The record behind these values is PMC11989239, “Structure–Property Relationships in Novel Series of Photoswitchable Local Anesthetic Ethercaine Derivatives: Emphasis on Biological and Photophysical Properties” (International Journal of Molecular Sciences, 2025).
